Results on one molecule are retold here after article PMC6131501, “Urate transporter inhibitor lesinurad is a selective peroxisome proliferator-activated receptor gamma modulator (sPPARγM) in vitro” (Scientific Reports, 2018).

A short description of series [1]: Aqueous solubility (noted for ITC). The format is physicochemical. From the text: To confirm direct modulation of PPARγ by lesinurad, we analyzed their interaction by isothermal titration calorimetry (ITC). Due to limited solubility of lesinurad, recombinant PPARγ ligand binding domain (LBD) protein was (reversely) titrated to the drug.
Series [2] can be described thus: Control reporter experiment in absence of a hybrid receptor. The series is classed as cell-based. The following applies: 30 μM, w/o hybrid receptor. From the text:
These in vitro test systems are based on a constitutively expressed hybrid receptor composed of the ligand binding domain of the respective human nuclear receptor and the DNA binding domain of the yeast receptor Gal4. A Gal4-inducible firefly luciferase serves as reporter gene and a constitutively expressed renilla luciferase is used for normalization of transfection efficacy and internal toxicity control[18],[19].

Turning to `O=C(O)CSc1nnc(Br)n1-c1ccc(C2CC2)c2ccccc12` [lesinurad], the aqueous solubility entry in series [1] is recorded as “limited aqueous solubility”. Further, in series [2], the “reporter transactivation in absence of a hybrid receptor” value is listed as “no reporter transactivation”.
